Like-named read-outs stand apart in the source and are kept apart here.
Assays:
[1] = Stability in mouse liver microsomes
Procedure: (§1) Compound mlm hlm mLogD PAMPA HepG2 name (%rem) (%rem) (nm/s) (IC50 µM)
(§2) Supplementary Table 2. Compound Properties. MLM, HLM, mLogD and PAMPA . mlm (%rem): % of compound remaining after 30 minutes’ incubation with mouse liver microsomes; hlm (%rem): % of compound remaining after 40 minutes’ incubation with human liver microsomes; mLogD: measured LogD at pH 7.4; PAMPA: parallel artificial membrane permeability assay; HepG2: Cytotoxicity assay using HepG2 cells; n.t.: not tested.

[2] = biological target: PfPKG T618Q (Plasmodium falciparum, UniProt Q8I719, T618Q); assay: Microfluidic mobility shift kinase assay, recombinant PfPKG T618Q gatekeeper mutant
PfPKG T618Q, sequence (Q8I719 whole entry T618Q): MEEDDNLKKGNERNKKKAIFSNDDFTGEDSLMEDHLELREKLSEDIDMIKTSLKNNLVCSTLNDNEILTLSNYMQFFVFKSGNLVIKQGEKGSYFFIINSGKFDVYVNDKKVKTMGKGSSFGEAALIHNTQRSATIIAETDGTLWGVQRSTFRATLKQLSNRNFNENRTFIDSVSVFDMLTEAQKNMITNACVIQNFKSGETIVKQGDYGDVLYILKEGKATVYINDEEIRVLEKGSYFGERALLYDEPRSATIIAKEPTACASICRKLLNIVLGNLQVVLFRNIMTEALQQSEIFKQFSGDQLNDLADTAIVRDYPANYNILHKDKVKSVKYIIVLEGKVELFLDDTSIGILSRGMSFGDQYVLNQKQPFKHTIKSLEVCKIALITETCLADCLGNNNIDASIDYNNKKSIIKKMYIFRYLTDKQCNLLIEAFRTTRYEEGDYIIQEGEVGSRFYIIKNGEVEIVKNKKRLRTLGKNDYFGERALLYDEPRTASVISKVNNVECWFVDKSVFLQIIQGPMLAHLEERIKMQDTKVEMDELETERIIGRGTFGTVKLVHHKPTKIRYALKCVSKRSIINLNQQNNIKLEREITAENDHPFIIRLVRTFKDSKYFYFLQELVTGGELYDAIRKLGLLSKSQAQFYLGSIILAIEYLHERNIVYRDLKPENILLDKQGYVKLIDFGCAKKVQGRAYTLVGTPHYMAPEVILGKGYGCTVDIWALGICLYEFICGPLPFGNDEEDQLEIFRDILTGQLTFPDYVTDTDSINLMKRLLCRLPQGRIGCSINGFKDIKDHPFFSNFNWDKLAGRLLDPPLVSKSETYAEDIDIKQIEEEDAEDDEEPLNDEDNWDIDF
Procedure: (§3) Full length PfPKG (NCBI accession code XP_001348520) with native codon usage was cloned into the pTrcHisC plasmid (Life Technologies) that includes an N-terminal His-tag as described previously[8]. […] Recombinant proteins were generated and purified using a protocol based on that described previously[8]. […] 500 ml cultures in LB Rich Broth (containing 50 μg/ml carbenicillin and 34 μg/ml chloramphenicol) were grown in a shaking incubator at 37 °C until reaching an optical density (O.D.) of 0.6–0.7. The temperature was reduced to 16 °C before induction of expression with 1 mM IPTG. Incubation at 16 °C was continued overnight.
(§4) The cultures were harvested by centrifugation at 4000×g at 4 °C for 30 min, the supernatant removed and the pellet stored at −80 °C for in excess of 1 h. The PKGs were purified via the histidine tag on HiTrap TALON (cobalt) columns (GE Healthcare) connected to an AKTA-FPLC as per the manufacturer's instruction. Fractions were analyzed by SDS-PAGE and the main peak concentrated on 10 kDa MWCO concentrators (Amicon). Purified proteins were stored in 50% glycerol at −80 °C in single use aliquots. The final buffer composition of the purified product was: 50 mM Tris/HCl pH 7.5, 0.1 mM EGTA, 150 mM NaCl, 0.1% β-mercaptoethanol, 50% glycerol, 0.03% Brij-35, 1 mM benzamidine and 0.2 mM PMSF.
(§5) IC50 values were determined for test compounds using a microfluidic mobility shift assay. Briefly, compounds were prepared over a 10-well ½ log dilution series in dimethyl sulfoxide (DMSO) in duplicate in 50 μl volumes using 384-well polypropylene U-bottomed plates (Thermo Scientific, UK). The plates contained positive/no inhibitor (DMSO only) and negative (no enzyme) controls in columns 1, 2, and 23, 24. […] Samples were pre-incubated at room temperature for 30 min and reactions were initiated by addition of 25 μl ATP mix (10 mM MgCl2 and ATP, at KM of the enzyme under test [20 µM PfPKG and 90 µM PfPKG T618Q], in water). Positive controls were complete reaction mixtures with 10% DMSO and negative controls were reaction mixtures with 10% DMSO but lacking enzyme. Reactions were allowed to proceed for 30 mins at room temperature, corresponding to conversion of approximately 10% of the substrate in the DMSO controls. Reactions were terminated by addition of 50 µl stop solution (25 mM EDTA in water). Samples were analyzed by electrophoretic separation of substrate and product peaks and fluorescence detection using a Caliper Lab Chip EZ reader. (Perkin Elmer, Waltham MA) with 0.2 s sip time, downstream voltage 500 V, upstream voltage 1950 V and pressure 0.5 to 1.5 psi. Substrate and product peak heights were measured and the ratio of the product peak height divided by the sum of the product and substrate peaks were determined using EZ reader software (version 3.0.265.0) to obtain percentage conversion (P) values. […] Liquid handling stages were conducted on a Biomek robotic liquid handler (Beckman Coulter).

[3] = Stability in human liver microsomes
Procedure: as §1, §2

[4] = Parallel artificial membrane permeability assay (PAMPA); type: in vitro ADME
From the text: Compound mlm hlm mLogD PAMPA HepG2
name (%rem) (%rem) (nm/s) (IC50 µM)
Supplementary Table 2. Compound Properties. MLM, HLM, mLogD and PAMPA . mlm

[5] = tested on: P. falciparum T618Q gatekeeper mutant line; assay: Hypoxanthine incorporation growth inhibition assay, asexual blood stage, T618Q gatekeeper mutant line; type: cell-based, Plasmodium falciparum; settings: for EC50 / EC90: T618Q clonal line asexual blood stage growth, 72 h, +/- s.e.m.; for sensitivity of gatekeeper mutant line compared with wild type (control drugs): tested in parallel on both parasite lines
Procedure: We determined that a 72 h P. falciparum (clone 3D7A; obtained from Lisa Ranford Cartwright, University of Edinburgh) growth inhibition assay was necessary for full inhibition to manifest itself and that this is due, most likely to a schizont-specific action rather than a delayed death phenotype as observed for some antibiotic macrocycles. Hypoxanthine incorporation assays[36] were performed on P. falciparum asexual blood stage parasites (wild-type 3D7 or T618Q gatekeeper mutant) to determine EC50 values for test compounds. Mixed staged parasites (primarily rings) were added to 96 well plates containing compounds at concentrations of 50 μM–0.3 nM. [^3H]-Hypoxanthine was added after 48 h to a final concentration of 0.2 μCi. The radioactivity of the labeled hypoxanthine incorporated into the parasite nucleic acids over 24 h was determined relative to untreated controls using a Wallac 1450 Microbeta scintillation counter (Perkin-Elmer). Assays were carried out in triplicate at least twice.

[6] = tested on: P. falciparum 3D7; assay: Hypoxanthine incorporation growth inhibition assay, asexual blood stage, wild-type 3D7; type: cell-based, Plasmodium falciparum; settings: for EC50: read-out: EC50 WT
Procedure: Hypoxanthine incorporation assays[36] were performed on P. falciparum asexual blood stage parasites (wild-type 3D7 or T618Q gatekeeper mutant) to determine EC50 values for test compounds. Mixed staged parasites (primarily rings) were added to 96 well plates containing compounds at concentrations of 50 μM–0.3 nM. […] Assays were carried out in triplicate at least twice.

[7] = biological target: PfPKG (Plasmodium falciparum, UniProt Q8I719); assay: Microfluidic mobility shift kinase assay, recombinant PfPKG wild type
PfPKG, sequence (Q8I719 whole entry): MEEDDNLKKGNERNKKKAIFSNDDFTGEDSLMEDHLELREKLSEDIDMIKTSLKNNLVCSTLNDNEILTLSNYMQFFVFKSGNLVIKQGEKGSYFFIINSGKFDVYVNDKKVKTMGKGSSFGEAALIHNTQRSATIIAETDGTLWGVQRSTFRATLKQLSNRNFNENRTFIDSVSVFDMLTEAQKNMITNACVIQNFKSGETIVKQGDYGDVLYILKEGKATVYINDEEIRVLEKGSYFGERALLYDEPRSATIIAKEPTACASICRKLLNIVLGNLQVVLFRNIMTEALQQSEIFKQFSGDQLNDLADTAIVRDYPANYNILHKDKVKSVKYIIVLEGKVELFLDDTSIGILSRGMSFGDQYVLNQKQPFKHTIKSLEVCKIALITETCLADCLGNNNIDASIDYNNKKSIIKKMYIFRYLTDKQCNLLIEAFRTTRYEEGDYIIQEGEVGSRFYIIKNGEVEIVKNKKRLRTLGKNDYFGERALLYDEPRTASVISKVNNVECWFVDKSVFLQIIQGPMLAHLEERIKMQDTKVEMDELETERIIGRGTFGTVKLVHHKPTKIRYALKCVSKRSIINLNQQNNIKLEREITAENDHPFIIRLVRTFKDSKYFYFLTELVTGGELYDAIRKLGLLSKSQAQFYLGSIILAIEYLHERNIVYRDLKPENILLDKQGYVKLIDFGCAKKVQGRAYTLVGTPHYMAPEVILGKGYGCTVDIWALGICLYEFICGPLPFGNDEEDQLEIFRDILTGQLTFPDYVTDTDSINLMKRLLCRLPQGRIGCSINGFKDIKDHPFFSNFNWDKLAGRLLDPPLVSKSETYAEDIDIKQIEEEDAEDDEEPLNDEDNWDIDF
Procedure: as §3, §4, §5

[8] = physchem; settings: pH 7.4
Procedure: as §1, §2

[9] = tested on: P. falciparum (NF54) gametocytes; assay: Standard membrane feeding assay (SMFA), gametocytes fed to Anopheles stephensi; type: cell-based, Plasmodium falciparum; settings: gametocytes pre-incubated 24 h, oocysts counted day 7 post-feed, read-out: IC50 for reduction of the intensity of infection (oocysts)
Procedure: Mature P. falciparum (NF54) gametocytes (14 day culture, 0.3–0.5% gametocytes, 2% haematocrit) were obtained from an automated tipper system and incubated with compound for 24 h as previously described. Anopheles stephensi (Sind-Kasur Nijmegen strain[39] were reared at 30 °C and 70–80% humidity, while exposed to a 12/12 h day/night cycle. On the day of feeding, the gametocyte culture was adjusted to 50% hematocrit with human red blood cells and human serum and fed to 3–5 day old mosquitoes using a glass membrane mini-feeder system containing 0.35 ml of the P. falciparum culture/compound mix[40]. Unfed and partially fed mosquitoes were removed after feeding and blood fed females were maintained at 26 °C and 70–80% humidity. Up to 20 surviving mosquitoes were collected on day 7 post-infection and oocysts were visualized using a 1% merchurochrome solution and quantified by microscopy. IC50 values were determined by logistic regression using Maximum Likelihood Estimation to find best fit[41].

[10] = tested on: HepG2 cells; assay: Cytotoxicity assay using HepG2 cells
Procedure: as §1, §2

[11] = tested on: P. chabaudi (AS); assay: Synchronous P. chabaudi AS model in BALB/c mice; type: in vivo, Plasmodium chabaudi; settings: single daily oral dose 50 mg/kg just prior to schizogony, 4 days
Procedure: Similar experiments were performed using P. chabaudi AS (from David Walliker, University of Edinburgh) with the following modifications. To allow dosing to be carried out more conveniently during the day, reversal of the light/dark exposure of mice for 2 weeks prior to the experiment was used to switch schizogony from midnight to noon each day. Mice were dosed at different time points in an attempt to have maximal coverage at the point of schizogony. All animal work protocols carried out at LSHTM were approved and licensed by the United Kingdom Home Office as governed by law under the Animals (Scientific Procedures) Act of 1986, in strict accordance with the Code of Practice Part 1 for the housing and care of animals (21 March 2005), available at http://www.homeoffice.gov.uk/science-research/animal-research/

[12] = Plasma levels in satellite groups of mice, P. berghei experiment; type: in vivo, mouse; settings: mice, oral 25 mg/kg, P. berghei experiment
From the text: Supplementary Figure 4. Plasma concentrations over time in rodent malaria models. […] Error bars show the standard deviation. (1 picture or pasted object on this page, not shown here)

[13] = Cytotoxicity assay using HepG2 cells; settings: human
Procedure: as §1, §2

[14] = tested on: P. falciparum wild-type (3D7) stage V gametocytes; assay: Gametogenesis (rounding up) assay, wild-type 3D7 stage V gametocytes; type: cell-based, Plasmodium falciparum; settings: 30 µM xanthurenic acid; 2 µM ML1, 1 µM ML10
Procedure: Plasmodium falciparum clone 3D7A (obtained from Dr Lisa Ranford-Cartwright, University of Edinburgh) gametocytes were initiated and cultured using an adapted version of the traditional Trager and Jenson method modified by Fivelman and colleagues. Stage V gametocytes were purified on a 60% Percoll gradient. Purified parasite samples were diluted in warm complete media (RPMI-1640 (Sigma), 0.5% Albumax (Invitrogen), 0.03% L-glutamine (Sigma), 0.2% Glucose (Sigma), 1× hypoxanthine (Sigma)), to a volume that would allow a final volume of […] per sample and a haematocrit of <10%. […] Control tubes containing DMSO only were kept at 37 °C. All other samples were incubated at room temperature for 30 min immediately after addition of test compounds. Samples were then washed once in warm RPMI followed by removal of the supernatant to leave a final haematocrit of roughly 50%. Samples were smeared on glass slides and fixed in 100% methanol (VWR) then stained for 15 min in 10% Giemsa R66 (VWR) and observed by light microscopy. The number of gametocytes at stage V and rounded up per 900 erythrocytes were counted three consecutive times to produce an average count. Numbers of parasites rounded up were compared to the no drug control.

[15] = tested on: P. falciparum gatekeeper mutant (T618Q) stage V gametocytes; assay: Gametogenesis (rounding up) assay, T618Q stage V gametocytes; type: cell-based, Plasmodium falciparum; settings: 30 µM xanthurenic acid; 2 µM ML1, 1 µM ML10
[16] = tested on: P. falciparum lab isolate Dd2; assay: In vitro selection of resistant parasites; type: cell-based, Plasmodium falciparum; settings: 3× EC50, 10^9 parasites, up to Day 60
Procedure: P. falciparum lab isolate Dd2 (from stocks held at LSHTM) was used for this experiment and the control compound used was atovaquone. Parasites were plated in triplicate at 10^9 parasites/well and maintained until parasites were observed microscopically (using Giemsa-stained blood films) or until Day 60 whichever was the soonest. […]. Gametocytes were present initially but were absent from Day 11.

[17] = read-out: IC50 T618Q, recombinant PfPKG T618Q, ATP at KM (90 µM), +/- s.e.m.
[18] = 3D7 asexual blood stage growth, 72 h, +/- s.e.m.
[19] = read-out: IC50 WT, recombinant full length 6His-tagged PfPKG, ATP at KM (20 µM), +/- s.e.m.
[20] = % of compound remaining after 40 minutes' incubation
[21] = Plasmodium falciparum, 3D7, 72 h
[22] = Plasmodium falciparum, 3D7, 72 h, 3D7 asexual blood stage growth, 72 h, +/- s.e.m.

| Structure (SMILES) | mlm (%rem) ([1]; mouse, microsomes, 0.5 h) [%] | IC50 [2, 17] [nM] | hlm (%rem) ([3]; human, microsomes, 40 min) [%] | PAMPA [4] [×10⁻⁶ cm/s] | EC50 [5] [nM] | EC90 [5] [nM] | EC90 [6, 18] [nM] | EC50 [6, 18] [nM] | IC50 [7, 19] [nM] | mLogD [8] | IC50 [10] [nM] | further results |
| --- | --- | --- | --- | --- | --- | --- | --- | --- | --- | --- | --- | --- |
| Fc1ccc(-c2nc3ccccn3c2-c2ccnc(Nc3ccc(N4CCNCC4)cc3)n2)cc1 [ML2] | 100 | 1710 | 100 | 0 | 140 | 956 | 628 | 197 | 1.71 | 3.1 | – | – |
| Cc1cn2c(-c3ccnc(Nc4ccc(N5CCNCC5)cc4)n3)c(-c3ccc(F)cc3)nc2cc1CN(C)C [ML4] | 84 | 231 | 31 | 3.71 | 107 | 186 | 107 | 25.3 | 0.45 | 2.8 | 1900 | IC50 [9]: 61.6 nM; reduction in blood stage parasitaemia [11]: 56.5%; plasma half-life [12]: 1.0 h |
| CN(C)Cc1ccn2c(-c3ccnc(N)n3)c(-c3ccc(F)cc3)nc2c1 [ML1, 4-[7-[(dimethylamino)methyl]-2-(4-fluorophenyl)imidazo[1,2-a]pyridine-3-yl]pyrimidin-2-amine, reference compound] | – | – | – | – | – | – | – | – | – | 2.4 | – | IC50 [2]: 8440 nM; hlm (%rem) [3, 20]: 70%; IC50 ([9]; Plasmodium falciparum, NF54): 507 nM; IC50 [13]: > 20000 nM; rounding up of wild-type gametocytes [14]: blocked rounding up; reduction in blood stage parasitaemia [11]: 67.9%; rounding up of T618Q gametocytes [15]: insensitive; half-life ([12]; BALB/c, mouse, in vivo, read-out: plasma half-life (converted)): 1.1 h; EC50 [6, 21]: 395 nM; IC50 [7]: 3.1 nM |
| CN(C)Cc1ccn2c(-c3ccnc(N)n3)c(-c3cccc(S(C)(=O)=O)c3)nc2c1 [ML5] | 96 | > 100000 | 96 | 1.77 | 12700 | 61500 | 445 | 329 | 0.88 | 1.5 | > 20000 | – |
| CN(C)Cc1ccn2c(-c3ccnc(NCC4CC4)n3)c(-c3cccc(S(C)(=O)=O)c3)nc2c1 [ML6] | 62 | 52500 | 72 | 11.45 | 1860 | 3490 | 142 | 102 | 0.13 | 2.3 | > 20000 | – |
| CCN(CC)CCCC(C)Nc1ccnc2cc(Cl)ccc12 (centres unmarked) [Chloroquine, reference compound] | – | – | – | – | – | – | – | – | – | – | – | sensitivity of gatekeeper mutant line compared with wild type (control drugs) [5]: equivalent levels of inhibition of both parasite lines; EC50 [6, 21]: 16.2 ± 1.2 nM |
| CN(C)Cc1ccn2c(-c3ccnc(N)n3)c(-c3cccc(NS(C)(=O)=O)c3)nc2c1 [ML7] | 96 | > 100000 | 82 | 0.64 | 35100 | 60700 | 633 | 489 | 4.34 | 1.6 | > 20000 | – |
| CN(C)Cc1ccn2c(-c3ccnc(Nc4ccc(N5CCNCC5)cc4)n3)c(-c3ccc(F)cc3)nc2c1 [ML3] | – | 842 | – | 6.62 | 195 | 279 | 236 | 63.4 | 0.79 | 2.2 | – | mlm (%rem) ([1]; % of compound remaining after 30 minutes' incubation): 89%; hlm (%rem) [3, 20]: 62%; IC50 ([10]; read-out: HepG2 (IC50 M), cytotoxicity): 1900 nM |
| CCc1nc(N)nc(N)c1-c1ccc(Cl)cc1 [Pyrimethamine, reference compound] | – | – | – | – | – | – | – | – | – | – | – | sensitivity of gatekeeper mutant line compared with wild type (control drugs) [5]: resistant; EC50 [6, 22]: 43.3 ± 5.9 nM |
| O=C1C(O)=C([C@H]2CC[C@H](c3ccc(Cl)cc3)CC2)C(=O)c2ccccc21 [atovaquone] | – | – | – | – | – | – | – | – | – | – | – | selection of resistant parasites [16]: readily selected |
| C[C@@H]1CC[C@H]2[C@@H](C)C(=O)O[C@@H]3O[C@@]4(C)CC[C@@H]1[C@]32OO4 [Artemisinin, reference compound] | – | – | – | – | – | – | – | – | – | – | – | sensitivity of gatekeeper mutant line compared with wild type (control drugs) [5]: equivalent levels of inhibition of both parasite lines; EC50 [6, 22]: 25.2 ± 1.5 nM |
| CN(C)Cc1ccn2c(-c3ccnc(N)n3)c(-c3ccc(F)c(NS(C)(=O)=O)c3)nc2c1 [ML8] | 97 | 73700 | 91 | 0.2 | 5570 | 31000 | 182 | 148 | 0.79 | 0.8 | > 20000 | – |
| Cc1cn2c(-c3ccnc(N)n3)c(-c3ccc(F)c(NS(C)(=O)=O)c3)nc2cc1CN(C)C [ML9] | 81 | > 100000 | 86 | 1.08 | 6900 | 48300 | 158 | 105 | 1.19 | 1.6 | – | – |
